ChEMBL document CHEMBL1135525, “Probing the ATP ribose-binding domain of cyclin-dependent kinases 1 and 2 with O(6)-substituted guanine derivatives” (J Med Chem, 2002)

Assays:
[1] = target: T1, Cyclin-dependent kinase 2/cyclin A (Homo sapiens, UniProt P24941); assay: Inhibition of human Cyclin-dependent kinase 2-cyclin A; type: protein-complex assay
[2] = target: T2, Cyclin-dependent kinase 1/cyclin B1 (Homo sapiens, UniProt P06493+P14635); assay: Inhibition of starfish oocyte (Marthasteria glacialis) Cyclin-dependent kinase 1-cyclin B1 at a concentration of 100 uM; type: protein-complex assay; details: Asteroidea
Target sequence in this assay (P06493 whole entry, looked up): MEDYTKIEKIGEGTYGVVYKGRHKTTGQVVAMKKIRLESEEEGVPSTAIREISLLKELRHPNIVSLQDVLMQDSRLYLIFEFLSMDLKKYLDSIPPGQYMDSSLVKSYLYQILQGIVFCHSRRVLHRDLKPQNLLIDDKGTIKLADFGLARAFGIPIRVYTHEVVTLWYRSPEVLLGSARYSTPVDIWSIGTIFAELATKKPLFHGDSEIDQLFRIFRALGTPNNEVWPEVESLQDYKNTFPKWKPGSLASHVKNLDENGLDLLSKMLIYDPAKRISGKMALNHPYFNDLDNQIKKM
Target sequence in this assay (P14635 whole entry, looked up): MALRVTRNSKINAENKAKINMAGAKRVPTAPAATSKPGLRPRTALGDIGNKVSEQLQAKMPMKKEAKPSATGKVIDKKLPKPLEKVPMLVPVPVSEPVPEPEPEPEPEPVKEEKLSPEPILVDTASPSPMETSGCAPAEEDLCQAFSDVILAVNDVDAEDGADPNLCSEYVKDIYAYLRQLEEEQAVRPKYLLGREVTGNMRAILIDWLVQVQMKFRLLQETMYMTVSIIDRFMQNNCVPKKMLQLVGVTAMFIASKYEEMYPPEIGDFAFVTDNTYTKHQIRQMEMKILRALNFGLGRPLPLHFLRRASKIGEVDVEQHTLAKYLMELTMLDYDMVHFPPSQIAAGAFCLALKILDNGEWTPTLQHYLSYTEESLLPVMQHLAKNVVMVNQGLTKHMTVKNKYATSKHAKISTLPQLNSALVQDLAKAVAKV

[3] = target: T3, Cyclin-dependent kinase 2/cyclin A (Homo sapiens) (UniProt P24941+P20248+P78396); assay: Inhibition of human Cyclin-dependent kinase 2-cyclin A at a concentration of 100 uM; type: protein-complex assay
[4] = target: T3, Cyclin-dependent kinase 2/cyclin A (Homo sapiens); assay: Inhibition of human Cyclin-dependent kinase 2-cyclin A3 at a concentration of 100 uM; type: protein-complex assay
[5] = target: T3, Cyclin-dependent kinase 2/cyclin A (Homo sapiens); assay: Inhibition of Cyclin-dependent kinase 2-cyclin A at 10 uM; type: protein-complex assay
[6] = target: T3, Cyclin-dependent kinase 2/cyclin A (Homo sapiens); assay: Inhibition of human Cyclin-dependent kinase 2-cyclin A at a concentration of 10 uM; type: protein-complex assay
[7] = target: T2, Cyclin-dependent kinase 1/cyclin B1; assay: Inhibition of starfish oocyte (Marthasteria glacialis) Cyclin-dependent kinase 1-cyclin B1 at a concentration of 10 uM; type: protein-complex assay; details: Asteroidea
Target sequence in this assay (P06493 whole entry, looked up): as the sequence (P06493 whole entry, looked up) above
Target sequence in this assay (P14635 whole entry, looked up): as the sequence (P14635 whole entry, looked up) above

MCF7 = assay: Inhibition of MCF-7 human breast carcinoma cell proliferation; type: functional
[8] = target: T3, Cyclin-dependent kinase 2/cyclin A (Homo sapiens); assay: Inhibition of Cyclin-dependent kinase 2-cyclin A at 100 uM; type: protein-complex assay
[9] = target: T2, Cyclin-dependent kinase 1/cyclin B1; assay: Inhibition of starfish oocyte (Marthasteria glacialis) Cyclin-dependent kinase 1-cyclin B1; type: protein-complex assay, Asteroidea
Target sequence in this assay (P06493 whole entry): as the sequence (P06493 whole entry, looked up) above
Target sequence in this assay (P14635 whole entry): as the sequence (P14635 whole entry, looked up) above

[10] = target: T3, Cyclin-dependent kinase 2/cyclin A (Homo sapiens); assay: Inhibition of human Cyclin-dependent kinase 2-cyclin A3 at 100 uM; type: protein-complex assay
[11] = target: T3, Cyclin-dependent kinase 2/cyclin A (Homo sapiens); assay: Inhibition of human Cyclin-dependent kinase 2-cyclin A at 100 uM; type: protein-complex assay
[12] = target: T1, Cyclin-dependent kinase 2/cyclin A; assay: Inhibition of human Cyclin-dependent kinase 2-cyclin A3; type: protein-complex assay

SMILES	IC50 [1]	inhibition [2]	also measured
CCCOc1nc(N)nc2nc[nH]c12	67 µM	–	–
CC(C)C(=O)COc1nc(N)nc2nc[nH]c12	–	41%	inhibition [3]: 31%
CC1(C)OC2OC(COc3nc(N)nc4[nH]cnc34)C3OC(C)(C)OC3C2O1 (stereo not drawn)	–	10%	inhibition [4]: 4%
Nc1nc(OC[C@@H]2CCC(=O)N2)c2nc[nH]c2n1	–	22%	inhibition [4]: 15%
CC1(C)OC[C@H](COc2nc(N)nc3[nH]cnc23)O1	–	31%	inhibition [4]: 27%
Nc1nc(OCC2CCCC2)c2nc[nH]c2n1	21 µM	–	–
Nc1nc(OCC2=CCCCC2)c2[nH]cnc2n1	22 µM	–	–
Nc1nc(OCC2=CCCC2)c2[nH]cnc2n1	31 µM	–	–
COc1cccc(COc2nc(N)nc3[nH]cnc23)c1	–	65%	inhibition [5]: 49%
Nc1nc(OCC23CC4CC(CC(C4)C2)C3)c2nc[nH]c2n1	–	–	inhibition [6]: 29%; inhibition [7]: 55%
CCCCOc1nc(N)nc2[nH]cnc12	48 µM	–	–
Nc1nc(OCC=C2CCCCC2)c2nc[nH]c2n1	–	–	inhibition [6]: 12%; inhibition [7]: 21%
CC/C=C/CCOc1nc(N)nc2[nH]cnc12	69 µM	–	–
CCC(C)Oc1nc(N)nc2[nH]cnc12 (stereo not drawn)	25 µM	–	–
Nc1nc(OCC2CC=CCC2)c2[nH]cnc2n1 (stereo not drawn)	13 µM	–	GI50 (MCF7): 37 µM
CCCCCOc1nc(N)nc2[nH]cnc12	49 µM	–	–
COC1OC(COc2nc(N)nc3[nH]cnc23)C2OC(C)(C)OC12 (stereo not drawn)	–	10%	GI50 (MCF7): > 100 µM; inhibition [4]: 16%
C=CCOc1nc(N)nc2nc[nH]c12	78 µM	–	–
Nc1cccc(COc2nc(N)nc3[nH]cnc23)c1	–	65%	inhibition [8]: 52%
Nc1nc(OCc2cccc3ccccc23)c2nc[nH]c2n1	–	–	inhibition [6]: 3%; inhibition [7]: 10%

SMILES	IC50 [1]	inhibition [2]	also measured
CC(C)COc1nc(N)nc2[nH]cnc12	42 µM	–	–
C=C(C)COc1nc(N)nc2nc[nH]c12	35 µM	–	–
CCCCCCCOc1nc(N)nc2[nH]cnc12	> 100 µM	–	IC50 [9]: 62 µM
Nc1nc(OCCc2ccccc2)c2nc[nH]c2n1	65 µM	–	–
Nc1nc(OCC2CCNCC2)c2nc[nH]c2n1	–	52%	inhibition [4]: 43%
CCC(COc1nc(N)nc2[nH]cnc12)(OC)OC	20 µM	–	IC50 [9]: 19 µM
Nc1nc(OCC2CCCCO2)c2nc[nH]c2n1 (stereo not drawn)	–	50%	inhibition [10]: 43%
CCC(C)COc1nc(N)nc2nc[nH]c12 (stereo not drawn)	15 µM	–	–
CC1(C)OCC(COc2nc(N)nc3[nH]cnc23)O1 (stereo not drawn)	–	43%	inhibition [4]: 36%
Nc1nc(OCC2CCCCC2)c2nc[nH]c2n1	–	–	GI50 (MCF7): 20 µM
C=C(COc1nc(N)nc2nc[nH]c12)c1ccccc1	34 µM	–	GI50 (MCF7): 28 µM
Nc1nc(OCc2ccccc2)c2[nH]cnc2n1 [6-O-BENZYLGUANINE]	35 µM	–	–
C=C(C)[C@H]1CC=C(COc2nc(N)nc3[nH]cnc23)CC1	–	–	inhibition [6]: 18%; inhibition [7]: 17%
Nc1nc(OCC2COc3ccccc3O2)c2nc[nH]c2n1 (stereo not drawn)	–	52%	inhibition [4]: 52%
Cc1cccc(COc2nc(N)nc3nc[nH]c23)c1	–	70%	inhibition [11]: 52%
COc1nc(N)nc2nc[nH]c12	–	36%	inhibition [3]: 35%
CC(C)Oc1[nH]c(N)nc2ncnc1-2	75 µM	–	–
Nc1nc(OCC2CCCO2)c2[nH]cnc2n1 (stereo not drawn)	–	49%	inhibition [3]: 40%
C=C(CC)COc1nc(N)nc2[nH]cnc12	21 µM	–	–
Nc1nc(OCCC2CCCCC2)c2nc[nH]c2n1	44 µM	–	–

SMILES	IC50 [1]	inhibition [2]	also measured
CC(C)CCOc1nc(N)nc2nc[nH]c12	26 µM	–	–
CC(=O)COc1nc(N)nc2[nH]cnc12	–	15%	inhibition [3]: 16%
CC1(C)OC[C@@H](COc2nc(N)nc3[nH]cnc23)O1	–	46%	inhibition [4]: 39%
CC(C)C1(COc2nc(N)nc3[nH]cnc23)OCCO1	–	–	IC50 [12]: 65 µM
Nc1nc(OCc2cccnc2)c2nc[nH]c2n1	–	55%	inhibition [4]: 43%
C#CCOc1nc(N)nc2nc[nH]c12	90 µM	–	–
C=CCCCCOc1nc(N)nc2[nH]cnc12	47 µM	–	–
Nc1nc(OCc2ccccn2)c2nc[nH]c2n1	–	58%	inhibition [4]: 43%
C=C(COc1nc(N)nc2[nH]cnc12)C(C)C	16 µM	–	–
Nc1nc(OCC2CCCNC2)c2nc[nH]c2n1 (stereo not drawn)	–	70%	inhibition [4]: 64%
Nc1nc(OCC(O)CO)c2nc[nH]c2n1 (stereo not drawn)	–	35%	inhibition [3]: 33%
Nc1nc(OCc2cccc(Cl)c2)c2nc[nH]c2n1	–	–	inhibition [5]: 19%; inhibition [7]: 28%
Nc1nc(OCc2ccc3ccccc3c2)c2[nH]cnc2n1	–	–	inhibition [6]: 9%; inhibition [7]: 12%
Nc1nc(OCC2COC3(CCCCC3)O2)c2[nH]cnc2n1 (stereo not drawn)	–	26%	inhibition [4]: 29%
CCOc1nc(N)nc2[nH]cnc12	–	48%	inhibition [3]: 51%
Nc1nc(OC[C@H]2CCC(=O)N2)c2nc[nH]c2n1	–	50%	inhibition [4]: 35%
CCOC.CCOC(C)COc1[nH]c(N)nc2ncnc1-2 (stereo not drawn)	33 µM	–	–
COCC(COc1nc(N)nc2[nH]cnc12)OC (stereo not drawn)	–	49%	inhibition [3]: 41%
